Source: patent US20170313674A1, “BENZYLHYDROXIDE DERIVATIVES, PREPARATION THEREOF AND THERAPEUTIC USE THEREOF” (SANOFI, priority 2014, published 2017)
Counter-ions that a name gives are not always drawn. Like-named read-outs stand apart in the source and are kept apart here.

Tested on: mitochondrial ATP production on non-small cell lung carcinoma cell lines NCI-H460
Assay: Mitochondrial ATP analysis (Cell Titer Glo) in NCI-H460 cells
Assay type: cell-based
Conditions: 1-hour incubation, with sodium iodoacetate (100 μM), concentration inhibiting 50% of mitochondrial ATP production, read-out: IC50 (mito ATP)
Procedure: In order to evaluate the inhibitory activity of the all compounds, an in vitro assay was developed which read out is directly linked to mitochondrial complex 1 inhibition. Since mitochondrial complex 1 contributes to the formation of membrane potential coupled to the mitochondrial ATP synthesis, complex 1 inhibition directly leads in cells to the inhibition of mitochondrial ATP production. Cellular ATP contents were measured in presence of either glycolysis inhibitor (sodium iodocetate) and/or mitochondrial inhibitors (F0F1-ATPase inhibitor: oligomycin or mitochondrial uncoupler: FCCP) to determine the ATP production part relying either on glycolytic or on mitochondrial metabolism.
Mitochondrial ATP Analysis
The compounds of the invention were evaluated for their ability to inhibit mitochondrial
ATP was measured using the Promega Cell Titer Glo kit and protocol. In summary, 1,000 cells were plated in 40 μL in a 384 well plate. 24 hours later, medium was replaced by 20 μl culture medium in presence of compounds: cells were treated in replicates of five with control (PBS), oligomycin A (10 μg/ml), FCCP (30 μM), or the compounds of the invention in dose effect both alone or in combination with sodium iodoacetate (100 μM). Following a 1-hour incubation, 20 μL of CellTtiter-glo™ reaction mix were added to each well for a final volume of 40 μL. Plates were then analyzed for luminescence with a Perkin Elmer EnVision. By comparing the different conditions, global ATP and percentages of both glycolytic and mitochondrial ATP were determined.
The mitochondrial ATP production was calculated as the remaining ATP under iodoacetate treatment minus basal ATP (ATP content under iodoacetate and oligomycin treatment). Inhibitory activity of the compounds on mitochondrial ATP in NCI-H460 cells is expressed as the concentration needed to inhibit 50% of mitochondrial ATP production (IC50, M).

| SMILES | IC50 [µM] | IC50 (Homo sapiens, NCI-H460, 1 h) [µM] |
| --- | --- | --- |
| COc1ccc(C(O)COc2ccc(-c3nc(C)c(-c4ccc(OCC(O)c5ccc(OC)c(OC)c5)cc4)o3)cc2)cc1OC (single isomer, unassigned) [Compound I-5, 1-(3,4-dimethoxyphenyl)-2-[4-[2-[4-[2-(3,4-dimethoxyphenyl)-2-hydroxy-ethoxy]phenyl]-4-methyl-oxazol-5-yl]phenoxy]ethanol] | 8.27 |  |
| COc1ccc(C(O)COc2ccc(-c3csc(-c4ccc(OCC(O)c5ccc(OC)c(OC)c5)cc4)n3)cc2)cc1OC (single isomer, unassigned) [Compound I-23, 1-(3,4-dimethoxyphenyl)-2-[4-[2-[4-[2-(3,4-dimethoxyphenyl)-2-hydroxy-ethoxy]phenyl]thiazol-4-yl]phenoxy]ethanol] | 0.197 |  |
| COc1ccc(C(O)C(C)(C)Oc2ccc(-c3csc(-c4ccc(OC(C)(C)C(O)c5ccc(OC)c(OC)c5)cc4)n3)cc2)cc1OC (single isomer, unassigned) [Compound I-28, 1-(3,4-dimethoxyphenyl)-2-[4-[2-[4-[2-(3,4-dimethoxyphenyl)-2-hydroxy-1,1-dimethyl-ethoxy]phenyl]thiazol-4-yl]phenoxy]-2-methyl-propan-1-ol] |  | 0.0418 |
| COc1ccc(C(O)COc2ccc(-c3nsc(-c4ccc(OCC(O)c5ccc(OC)c(OC)c5)cc4)n3)cc2)cc1OC (single isomer, unassigned) [Compound I-40, 1-(3,4-dimethoxyphenyl)-2-[4-[5-[4-[2-(3,4-dimethoxyphenyl)-2-hydroxy-ethoxy]phenyl]-1,2,4-thiadiazol-3-yl]phenoxy]ethanol] |  | 0.281 |
| COc1ccc(C(O)COc2ccc(-c3nsc(-c4ccc(OCC(O)c5ccc(OC)c(OC)c5)cc4)n3)cc2)cc1OC (single isomer, unassigned) [Compound I-41, 1-(3,4-dimethoxyphenyl)-2-[4-[5-[4-[2-(3,4-dimethoxyphenyl)-2-hydroxy-ethoxy]phenyl]-1,2,4-thiadiazol-3-yl]phenoxy]ethanol] | 0.539 |  |
| COc1ccc(C(O)COc2ccc(-c3nc(C)c(-c4ccc(OCC(O)c5ccc(OC)c(OC)c5)cc4)o3)cc2)cc1OC (single isomer, unassigned) [Compound I-46, 1-(3,4-dimethoxyphenyl)-2-[4-[2-[4-[2-(3,4-dimethoxyphenyl)-2-hydroxy-ethoxy]phenyl]-4-methyl-oxazol-5-yl]phenoxy]ethanol] |  | > 10 |
| COc1ccc(C(O)COc2ccc(-c3csc(-c4ccc(OCC(O)c5ccc(OC)c(OC(F)F)c5)cc4)n3)cc2)cc1OC(F)F (single isomer, unassigned) [Compound I-49, 1-[3-(difluoromethoxy)-4-methoxy-phenyl]-2-[4-[2-[4-[2-[3-(difluoromethoxy)-4-methoxy-phenyl]-2-hydroxy-ethoxy]phenyl]thiazol-4-yl]phenoxy]ethanol] | > 10 |  |
| COc1ccc(C(O)COc2ccc(-c3csc(-c4ccc(OCC(O)c5ccc(OC)c(OC(F)F)c5)cc4)n3)cc2)cc1OC(F)F (single isomer, unassigned) [Compound I-50, 1-[3-(difluoromethoxy)-4-methoxy-phenyl]-2-[4-[2-[4-[2-[3-(difluoromethoxy)-4-methoxy-phenyl]-2-hydroxy-ethoxy]phenyl]thiazol-4-yl]phenoxy]ethanol] | 1.34 |  |
| COc1cc(C(O)COc2ccc(-c3csc(-c4ccc(OCC(O)c5ccc(OC(F)F)c(OC)c5)cc4)n3)cc2)ccc1OC(F)F (single isomer, unassigned) [Compound I-51, 1-[4-(difluoromethoxy)-3-methoxy-phenyl]-2-[4-[2-[4-[2-[4-(difluoromethoxy)-3-methoxy-phenyl]-2-hydroxy-ethoxy]phenyl]thiazol-4-yl]phenoxy]ethanol] |  | > 10 |
| COc1cc(C(O)COc2ccc(-c3csc(-c4ccc(OCC(O)c5ccc(OC(F)F)c(OC)c5)cc4)n3)cc2)ccc1OC(F)F (single isomer, unassigned) [Compound I-52, 1-[4-(difluoromethoxy)-3-methoxy-phenyl]-2-[4-[2-[4-[2-[4-(difluoromethoxy)-3-methoxy-phenyl]-2-hydroxy-ethoxy]phenyl]thiazol-4-yl]phenoxy]ethanol] | > 10 |  |
| COc1cc(C(O)COc2ccc(-c3coc(-c4ccc(OCC(O)c5ccc(Cl)c(OC)c5)cc4)n3)cc2)ccc1Cl (centres unmarked) [Compound I-15, 1-(4-chloro-3-methoxy-phenyl)-2-[4-[2-[4-[2-(4-chloro-3-methoxy-phenyl)-2-hydroxy-ethoxy]phenyl]oxazol-4-yl]phenoxy]ethanol] |  | 1.55 |
| COc1cc(C(O)COc2ccc(-c3coc(-c4ccc(OCC(O)c5ccc(F)c(OC)c5)cc4)n3)cc2)ccc1F (centres unmarked) [Compound I-16, 1-(4-fluoro-3-methoxy-phenyl)-2-[4-[2-[4-[2-(4-fluoro-3-methoxy-phenyl)-2-hydroxy-ethoxy]phenyl]oxazol-4-yl]phenoxy]ethanol] |  | 0.354 |
| COc1ccc(C(O)COc2ccc(-c3coc(-c4ccc(OCC(O)c5ccc(OC)c(F)c5)cc4)n3)cc2)cc1F (centres unmarked) [Compound I-17, 1-(3-fluoro-4-methoxy-phenyl)-2-[4-[2-[4-[2-(3-fluoro-4-methoxy-phenyl)-2-hydroxy-ethoxy]phenyl]oxazol-4-yl]phenoxy]ethanol] |  | 3.96 |
| COc1cc(C(O)COc2ccc(-c3coc(-c4ccc(OCC(O)c5cc(OC)c(OC)c(OC)c5)cc4)n3)cc2)cc(OC)c1OC (centres unmarked) [Compound I-20, 2-[4-[2-[4-[2-hydroxy-2-(3,4,5-trimethoxyphenyl)ethoxy]phenyl]oxazol-4-yl]phenoxy]-1-(3,4,5-trimethoxyphenyl)ethanol] |  | 1.42 |

The remaining lines, values ahead:

| IC50 [µM] | IC50 (Homo sapiens, NCI-H460, 1 h) [µM] | SMILES |
| --- | --- | --- |
| 0.156 |  | COc1ccc(C(O)COc2ccc(-c3nc(-c4ccc(OC(C)(C)C(O)c5ccc(OC)c(OC)c5)cc4)cs3)cc2)cc1OC (single isomer, unassigned) [Compound I-67, 1-(3,4-dimethoxyphenyl)-2-[4-[2-[4-[2-(3,4-dimethoxyphenyl)-2-hydroxy-ethoxy]phenyl]thiazol-4-yl]phenoxy]-2-methyl-propan-1-ol] |
| 0.0328 |  | COc1ccc(C(O)COc2ccc(-c3nc(-c4ccc(OC(C)(C)C(O)c5ccc(OC)c(OC)c5)cc4)cs3)cc2)cc1OC (single isomer, unassigned) [Compound I-68, 1-(3,4-dimethoxyphenyl)-2-[4-[2-[4-[2-(3,4-dimethoxyphenyl)-2-hydroxy-ethoxy]phenyl]thiazol-4-yl]phenoxy]-2-methyl-propan-1-ol] |
|  | 0.956 | COc1ccc(C(O)COc2ccc(-c3c[nH]c(-c4ccc(OCC(O)c5ccc(OC)c(OC)c5)cc4)n3)cc2)cc1OC (centres unmarked) [Compound I-53, 1-(3,4-dimethoxyphenyl)-2-[4-[2-[4-[2-(3,4-dimethoxyphenyl)-2-hydroxy-ethoxy]phenyl]-1H-imidazol-4-yl]phenoxy]ethanol] |
|  | 0.672 | COc1ccc(C(O)C(C)(C)Oc2ccc(-c3c[nH]c(-c4ccc(OC(C)(C)C(O)c5ccc(OC)c(OC)c5)cc4)n3)cc2)cc1OC (centres unmarked) [Compound I-54, 1-(3,4-dimethoxyphenyl)-2-[4-[2-[4-[2-(3,4-dimethoxyphenyl)-2-hydroxy-1,1-dimethyl-ethoxy]phenyl]-1H-imidazol-4-yl]phenoxy]-2-methyl-propan-1-ol] |
|  | 2.75 | COc1ccc(C(O)C(C)(C)Oc2ccc(-c3cn(CCN4CCOCC4)c(-c4ccc(OC(C)(C)C(O)c5ccc(OC)c(OC)c5)cc4)n3)cc2)cc1OC (centres unmarked) [Compound I-59, 1-(3,4-dimethoxyphenyl)-2-[4-[2-[4-[2-(3,4-dimethoxyphenyl)-2-hydroxy-1,1-dimethyl-ethoxy]phenyl]-1-(2-morpholinoethyl)imidazo1-4-yl]phenoxy]-2-methyl-propan-1-ol] |
| > 10 |  | COc1ccc(C(O)COc2ccc(-c3cn(CCN4CCOCC4)c(-c4ccc(OCC(O)c5ccc(OC)c(OC)c5)cc4)n3)cc2)cc1OC (centres unmarked) [Compound I-60, 1-(3,4-dimethoxyphenyl)-2-[4-[2-[4-[2-(3,4-dimethoxyphenyl)-2-hydroxy-ethoxy]phenyl]-1-(2-morpholinoethyl)imidazo1-4-yl]phenoxy]ethanol hydrochloride] |
